This note sets out measurements from patent publication US20090105283A1, “3-HYDROQUINAZOLIN-4-ONE DERIVATIVES FOR USE AS STEAROYL CoA DESATURASE INHIBITORS” (priority 2007, published 2009).

The target of this assay is T1, stearoyl-CoA desaturase (SCD) (Rattus norvegicus, UniProt P07308).
T1 construct: The microsomes were quickly thawed and added to assay buffer so that a concentration of 0.4 mg/ml was achieved; from tissue
T1 sequence (P07308 1-358): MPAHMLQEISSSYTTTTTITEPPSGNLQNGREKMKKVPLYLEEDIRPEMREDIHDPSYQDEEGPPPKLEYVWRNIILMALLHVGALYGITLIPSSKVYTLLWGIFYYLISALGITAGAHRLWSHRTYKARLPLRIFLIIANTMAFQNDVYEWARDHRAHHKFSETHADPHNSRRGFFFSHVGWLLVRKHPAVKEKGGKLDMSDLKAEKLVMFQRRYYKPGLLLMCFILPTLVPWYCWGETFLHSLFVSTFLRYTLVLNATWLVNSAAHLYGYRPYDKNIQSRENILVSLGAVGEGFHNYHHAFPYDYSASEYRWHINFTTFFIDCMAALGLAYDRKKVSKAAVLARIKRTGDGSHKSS
As to the kind of experiment: SCD assay with rat liver microsomes ([3H]stearoyl CoA, adapted from Talamo and Bloch). The note with it: Table 2 (Example 21, procedures of Example 20); rat liver microsomes, [3H]stearoyl CoA substrate. The class given is biochemical. The essentials:
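Liver microsomes came from diet-induced male Sprague Dawley rats and were used at 0.2 mg/ml final. Assay buffer was Tris pH 7.2 with NADH, ATP, CoA, MgCl2 and 0.1% BSA. Compounds were preincubated 30 min, then reacted 45 min at room temperature with [3H]stearoyl-CoA; after TCA stop and Bio-Bead cleanup, supernatant radioactivity was counted by scintillation.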

SMILES strings stand for the structures.

Usually IC50 stands for the concentration that gives 50% inhibition. Lower therefore signals greater potency in that assay. `CNC(=O)c1ccc2c(=O)n(Cc3ccc(Cl)c(Cl)c3)cnc2c1` [compound 88, 3-(3,4-dichlorobenzyl)-N-methyl-4-oxo-3,4-dihydroquinazoline-7-carboxamide] came in with an IC50 of 1500 nM. That is a single-digit micromolar value.

Turning to `CNC(=O)c1ccc2c(=O)n(Cc3ccc(Cl)cc3)cnc2c1` [compound 89, 3-(4-chlorobenzyl)-N-methyl-4-oxo-3,4-dihydroquinazoline-7-carboxamide], 7500 nM corresponded to half-maximal inhibition (IC50). On to `O=C(NCc1ccc(F)cc1)c1ccc2c(=O)n(Cc3ccc(Cl)cc3)cnc2c1` [compound 90, 3-(4-chlorobenzyl)-N-(4-fluorobenzyl)-4-oxo-3,4-dihydroquinazoline-7-carboxamide], for which the midpoint of inhibition, the IC50, lay at 890 nM.

`O=C(NCc1ccc(Cl)c(Cl)c1)c1ccc2c(=O)n(Cc3ccc(Cl)c(Cl)c3)cnc2c1` [compound 91, N,3-bis(3,4-dichlorobenzyl)-4-oxo-3,4-dihydroquinazoline-7-carboxamide] showed a half-inhibitory concentration (IC50) of 1700 nM. For `O=C(NCCO)c1ccc2c(=O)n(Cc3ccc(Cl)cc3)cnc2c1` [compound 92, 3-(4-chlorobenzyl)-N-(2-hydroxyethyl)-4-oxo-3,4-dihydroquinazoline-7-carboxamide] the value was 1000 nM; for `COCCNC(=O)c1ccc2c(=O)n(Cc3ccc(Cl)cc3)cnc2c1` [compound 93, 3-(4-chlorobenzyl)-N-(2-methoxyethyl)-4-oxo-3,4-dihydroquinazoline-7-carboxamide], 3100 nM; for `NCC(=O)Nc1ccc2ncn(Cc3ccc(Cl)c(Cl)c3)c(=O)c2c1` [compound 94, 2-amino-N-(3-(3,4-dichlorobenzyl)-4-oxo-3,4-dihydroquinazolin-6-yl)acetamide], 1300 nM. For `O=C(CCO)Nc1ccc2ncn(Cc3ccc(Cl)c(Cl)c3)c(=O)c2c1` [compound 95, N-(3-(3,4-dichlorobenzyl)-4-oxo-3,4-dihydroquinazolin-6-yl)-3-hydroxypropanamide] the value was 12000 nM; for `O=C(Nc1ccc2ncn(Cc3ccc(Cl)c(Cl)c3)c(=O)c2c1)[C@H](O)Cc1ccccc1` [compound 96, (R)—N-(3-(3,4-dichlorobenzyl)-4-oxo-3,4-dihydroquinazolin-6-yl)-2-hydroxy-3-phenylpropanamide], 3900 nM; for `O=C(Nc1ccc2ncn(Cc3ccc(Cl)c(Cl)c3)c(=O)c2c1)[C@@H](O)Cc1ccccc1` [compound 97, (S)—N-(3-(3,4-dichlorobenzyl)-4-oxo-3,4-dihydroquinazolin-6-yl)-2-hydroxy-3-phenylpropanamide], 4800 nM. For the compound `O=C(C[C@H](O)c1ccccc1)Nc1ccc2ncn(Cc3ccc(Cl)c(Cl)c3)c(=O)c2c1` [compound 98, (S)—N-(3-(3,4-dichlorobenzyl)-4-oxo-3,4-dihydroquinazolin-6-yl)-3-hydroxy-3-phenylpropanamide], 1800 nM corresponded to half-maximal inhibition (IC50). As for `O=C(C[C@@H](O)c1ccccc1)Nc1ccc2ncn(Cc3ccc(Cl)c(Cl)c3)c(=O)c2c1` [compound 99, (R)—N-(3-(3,4-dichlorobenzyl)-4-oxo-3,4-dihydroquinazolin-6-yl)-3-hydroxy-3-phenylpropanamide], the figure is 1700 nM.

Regarding `O=C(Nc1ccc2ncn(Cc3ccc(Cl)c(Cl)c3)c(=O)c2c1)[C@@H](O)c1ccccc1` [compound 100, (S)—N-(3-(3,4-dichlorobenzyl)-4-oxo-3,4-dihydroquinazolin-6-yl)-2-hydroxy-2-phenylacetamide], half-maximal inhibition (IC50) required 2300 nM. `C[C@@H](c1ccc(Cl)c(C(F)(F)F)c1)n1cnc2ccc(NC(=O)CO)cc2c1=O` [compound 102, (S)—N-(3-(1-(4-chloro-3-(trifluoromethyl)phenyl)ethyl)-4-oxo-3,4-dihydroquinazolin-6-yl)-2-hydroxyacetamide] came in with an IC50 of 480 nM.

For `O=C(Nc1ccc2ncn(C/C=C/COc3cc(Cl)ccc3Cl)c(=O)c2c1)OCc1ccccc1` [compound 103, (E)-benzyl 3-(4-(2,5-dichlorophenoxy)but-2-enyl)-4-oxo-3,4-dihydroquinazolin-6-ylcarbamate], the IC50 came to 380 nM.

In turn, `O=C(Nc1ccc2ncn(Cc3ccc(Cl)c(Cl)c3)c(=O)c2c1)C(O)CO` (centres unmarked) [compound 106, N-(3-(3,4-dichlorobenzyl)-4-oxo-3,4-dihydroquinazolin-6-yl)-2,3-dihydroxypropanamide] had an IC50 of 3900 nM. As for `O=C(O)C(=O)Nc1ccc2ncn(Cc3ccc(Cl)c(Cl)c3)c(=O)c2c1` [compound 107, 2-(3-(3,4-dichlorobenzyl)-4-oxo-3,4-dihydroquinazolin-6-ylamino)-2-oxoacetic acid], the figure is 890 nM.
